Measurements reported in BindingDB's records for doi:10.3109/14756366.2011.649267 (South Dakota State University, 2013).

Target: T1, Glutaredoxin-1 (Human, UniProt P35754)
T1 sequence (P35754 whole entry): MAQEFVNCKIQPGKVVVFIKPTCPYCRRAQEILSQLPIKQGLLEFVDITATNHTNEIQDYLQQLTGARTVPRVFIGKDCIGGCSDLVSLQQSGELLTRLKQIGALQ
Assay: GRX Assay
Settings: pH 8; 25 °C
Description: Human GRX-1 (0.25 unit/mL) was incubated at 25 °C with increasing concentrations of 2-AAPA (25, 50, 100, and 200 μM) and BSA (1 mg/mL). Aliquots were withdrawn for determination of GRX activity at 3, 10, and 20 min. Control incubations without 2-AAPA were conducted in parallel. The aliquots were added to the GRX assay solution, and enzyme activity was determined from a coupled reaction with GR based on a literature reported procedure with minor modification. In this assay, a mixed disulfide between GSH and the mercaptoethanol moiety derived from 2-hydroxyethyldisulfide (HED) served as the substrate for GRX; briefly GSH (10 mM) and HED (7 mM) were premixed in water for 5 min before transferring onto ice. The final GRXassay solution contained GSH (1 mM), HED (0.7mM), GR (0.02 units/mL), NADPH (0.2 mM), and bovine serum albumin (BSA, 1 mg/mL) in Trisbuffer (pH 8, 0.1 M). Theactivity was determined by monitoring the disappearance of NADPH spectrophotometrically at λ = 340 nm [Holmgren et al., Meth. Enzymol., 252:283-292].

Work on `CC(=O)NC(CSC(=S)Nc1ccc(NC(=S)SCC(NC(C)=O)C(=O)O)cc1)C(=O)O` (stereo unspecified) [2-AAPA] yielded a Ki of 91.3 µM.
